In US5153211A, “Spiro-tricyclicaromatic succinimide derivatives as inhibitors of aldose reductase” (Alcon Laboratories, Inc., priority 1991, dated 1992):
Read-outs that look alike come from different tables or passages of the source. Blank lines part the entries; values can stand above or below the molecule they belong to.

Key:
[1] = target: T1, rat lens aldose reductase (Rattus norvegicus, UniProt P07943); assay: inhibition of rat lens aldose reductase; type: biochemical
T1 construct: evaluated against rat lens aldose reductase; from tissue; host or cells: rat lens
Procedure: *IC50 values are based on inhibition of rat lens aldose reductase.
a) P. F. Kador, L. O. Merola and J. H. Kinoshita, Docum. Ophthal. Proc. Series, 18, 117-124 (1979);
b) P. F. Kador, J. H. Kinoshita, W. H. Tung and L. T. Chylack, Jr., Invest. Ophthalmol. Vis. Sci., 19, 980-982 (1980);
c) P. F. Kador, D. Carper and J. H. Kinoshita, Analytical Biochemistry, 114, 53-58 (1981).
Wherein the assay mixture used in the tests containing 0.1M potassium phosphate buffer, pH 6.2, 0.2 mM nictoinamide adenine dinucleotide phosphate (NADPH), 10 mM D,L-glyceraldehyde, and an appropriate volume of the enzyme preparation, thermostated at 25° C. in the cell compartment of a spectrophotometer. These conditions are identical to those published in references (a), (b) and (c), except that a larger NADPH concentration was employed. […] The control sample contained no added inhibitor. In order to measure aldose reductase inhibition activity, varying concentrations of the inhibitor examples set forth below were added to the standard incubation mixture. The control, containing the enzyme and NADPH, gave a very small, but measurable rate; thus, it served as the blank against which to measure the glyceraldehyde-dependent rate of NADPH oxidation. The tests were conducted with human placental aldose reductase enzyme. The results of the tests are the product of multiple assays. […] A test compound is considered active if it inhibits or reduces human aldose reductase activity at 1×10^-4 M concentration or less. The following list is provided as a representative sample of the biological activity of the spiro-tricyclic derivatives of the present invention.
According to the procedures of Kador, Merola and Kinoshite, Docum. Ophthal. Proc. Series, 18 (1979) 117 and Kador and Sharpless, Biophysical Chemistry, 8 (1978) 81 the inhibition exerted by examples of the present invention where evaluated against rat lens aldose reductase. Otherwise, the inhibitor assay is identical to that employed against human aldose reductase in Example XXVI. Representative rat lens aldose reductase inhibition is presented in terms of the concentration of test compound required to reduce rat lens aldose reductase enzyme activity by 50%. A test compound is considered active if it inhibits or reduces rat lens aldose reductase activity at 1×10^-4 M concentration or less.

galactosemic rats = conditions: per oral, once daily, cited from earlier work
[2] = tested on: rat lenses in 30 mM xylose culture; assay: rat lens culture assay, 30 mM xylose cataract model; type: cell-based, Sprague-Dawley rats; conditions: for lens opacification / lens wet weight increase: 7.5×10^-7 M in the culture media, 30 mM xylose, 18 h; for activity at 0.75 µM: Rattus norvegicus, after 18 h 30 mM xylose culture, compound 7.5 × 10^-7 M, % of control contralateral lens
Procedure: Aldose reductase inhibitor potency may be evaluated in rat lens culture assays where 30 mM of glucose, galactose or xylose can be used in culture to induce a `sugar` cataract. In addition to monitoring lens clarity, certain biochemical radiolabeled markers (e.g., choline --^3 H and ^86 Rb) are employed to measure lens function. See Obazawa, Merola and Kinoshita, Invest. Ophthalmol., 13 (1974) 204 and Jernigan, Kador and Kinoshita, Exp. Eye Res., 32 (1981) 709.
The general procedure is as follows: a) Sprague-Dawley rats of 75-100 g body weight are sacrificed and the lenses removed immediately; b) the contralateral lens of the pair of lenses is employed as untreated control lens; c) the test lens is cultured in TC-199 culture media in the presence of 30 mM xylose, 30 mM xylose plus a selected concentration of test compound or a selected concentration of test compound; d) the contralateral control lens is treated identical to the test lens except no test compound or xylose is included; e) the matched lens pairs are cultured for 18 h in a CO2 incubator; f) the lenses are compared morphologically and weighed. All lenses, control and test groups, are allowed to preincubate for 1 h in respective control media or drug control media prior to transfer to xylose media or xylose-drug media. In those cases where radiolabelled markers are to be measured, the lenses are treated as aforementioned except the radiolabelled marker(s) are added to the culture at four hours before harvesting. Radiolabelled markers include choline --^3 H ([…] available from New England Nuclear), AIBA --^14 C (α-[1-^14 C]-(CH3)2 C(NH2)COOH available from New England Nuclear) and ^86 Rb. The effect of xylose on lens uptake of ^86 Rb, lens uptake of amino acid (AIBA --^14 C) and lens uptake of choline --^3 H and the effectiveness of representative compounds of the present invention to preserve normal lens morphology is reported here.
The effect of 30 mM xylose and 30 mM xylose plus selected concentrations of test compound on radioactivity ratio is expressed as L/M % of control. L/M % of control is defined as the test lens radioactivity divided by culture media radioactivity as a percentage of the control contralateral lens radioactivity to media radioactivity ratio under identical test conditions but always without xylose or test compound in the control. The effect of 30 mM xylose in the culture media gives a reproducible deleterious effect on the lens as measured by the various L/M %. Furthermore, after incubation of the lens in 30 mM xylose in the TC-199 culture media, the lens gains 20% weight (mostly water weight increase based on dry lens weight measurements) and becomes opaque in the cortex of the lens. Each experiment requires 20-40 pairs of lenses to determine the potency of a selected aldose reductase inhibitor.

[3] = tested on: chronic streptozotocin-induced rats; conditions: 8 mg/kg per oral per day; cited from earlier work
[4] = read-out: L/M% = Lens uptake of 86Rb
[5] = read-out: L/M% = Lens uptake of AIBA-14C (amino acid)
[6] = read-out: L/M% = Lens uptake of choline-3H
[7] = based on inhibition of rat lens aldose reductase, read-out: IC50

IC50 ([1]; based on the inhibition of rat lens aldose reductase, read-out: IC50 value): 7.8 nM
Structure (SMILES): COc1cc(F)cc2c1-c1c(OC)cc(F)cc1C21NC(=O)NC1=O [2,7-difluoro-4,5-dimethoxyspiro (9H-fluorene-9,4'-imidazolidine)-2',5'-dione]

Structure (SMILES): O=C1NC(=O)C2(N1)c1cc(F)ccc1-c1ccc(F)cc12 [B, Spiro-(2,7-difluoro-9H-fluoren-9,4'-imidazolidine)-2',5'-dione, reference compound]
preventing cataract in galactosemic rats (galactosemic rats; 0.4 mg/kg): wholly effective | lens opacification [2]: prevented | lens wet weight increase [2]: prevented | activity at 0.75 µM [2, 4]: 82% | activity at 0.75 µM [2, 5]: 87% | activity at 0.75 µM [2, 6]: 105%

Structure (SMILES): O=C1NC(=O)C2(S1)c1ccccc1-c1ccc(F)cc12 (centres unmarked) [C, Spiro-(2-fluoro-9H-fluoren-9,5'-thiazolidine)-2',4'-dione]
lens opacification [2]: prevented | lens wet weight increase [2]: prevented | activity at 0.75 µM [2, 4]: 70% | activity at 0.75 µM [2, 5]: 58% | activity at 0.75 µM [2, 6]: 77%

IC50 [1, 7]: 2.8 nM
Structure (SMILES): Cc1cc(F)cc2c1-c1ccc(F)cc1C21CC(=O)NC1=O (centres unmarked) [Compound 3, 2,7-DIFLUORO-4-METHYLSPIRO[9H-FLUORENE-9,3'-PYRROLIDINE]-2',5'-DIONE]

IC50 [1, 7]: 17 nM
Structure (SMILES): O=C1NC(=O)C2(S1)c1cc(F)cc(F)c1-c1c(F)cc(F)cc12 [Compound 7, 2,4,5,7-TETRAFLUOROSPIRO[9H-FLUORENE-9,5'-THIAZOLIDINE]-2',4'-DIONE]

IC50 [1, 7]: 12 nM
Structure (SMILES): O=C1NC(=O)C2(N1)c1cc(F)cc(F)c1-c1c(F)cc(F)cc12 [Compound 9, 2,4,5,7-TETRAFLUOROSPIRO[9H-FLUORENE-9,4'-IMIDAZOLIDINE]-2',5'-DIONE]

IC50 [1, 7]: 12.8 nM
Structure (SMILES): Cc1cc(F)cc2c1-c1ccc(F)cc1C21NC(=O)NC1=O (centres unmarked) [Compound 11, 2,7-DIFLUORO-4-METHYLSPIRO[9H-FLUORENE-9,4'-IMIDAZOLIDINE]-2',5'-DIONE]

IC50 [1, 7]: 9.4 nM
Structure (SMILES): COc1cc(F)cc2c1-c1ccc(F)cc1C21NC(=O)NC1=O (centres unmarked) [Compound 16, 2,7-DIFLUORO-4-METHOXYSPIRO[9H-FLUORENE-9,4'-IMIDAZOLIDINE]-2',5'-DIONE]

IC50 [1, 7]: 4.8 nM
Structure (SMILES): COc1cc(F)cc2c1-c1ccc(F)cc1C21CC(=O)NC1=O (centres unmarked) [Compound 17, 2,7-DIFLUORO-4-METHOXYSPIRO[9H-FLUORENE-9,3'-PYRROLIDINE]-2',5'-DIONE]

IC50 [1, 7]: 48 nM
Structure (SMILES): Cc1ccc2c(n1)-c1c(F)cc(F)cc1C21NC(=O)NC1=O (centres unmarked) [Compound 22, 7,9-DIFLUORO-2-METHYLSPIRO[5H-INDENO[1,2-b]PYRIDIN-5,4'-IMIDAZOLIDINE]-2',5'-DIONE]

IC50 [1, 7]: 11300 nM
Structure (SMILES): COc1cc(F)cc2c1-c1c(F)cc(F)cc1C21NC(=O)NC1=O (centres unmarked) [Compound 28, 2,4,7-TRIFLUORO-5-METHOXYSPIRO[9H-FLUORENE-9,4'-IMIDAZOLIDINE]-2',5'-DIONE]

IC50 [1, 7]: 17.5 nM
Structure (SMILES): CSc1cc(F)cc2c1-c1ccc(F)cc1C21NC(=O)NC1=O (centres unmarked) [Compound 34, 2,7-DIFLUORO-4-METHYLTHIOSPIRO[9H-FLUORENE-9,4'-IMIDAZOLIDINE]-2',5'-DIONE]

IC50 [1, 7]: 16.1 nM
Structure (SMILES): Cc1cc(F)cc2c1-c1ncc(F)cc1C21NC(=O)NC1=O (centres unmarked) [Compound 43, 3,7-DIFLUORO-9-METHYLSPIRO[5H-INDENO[1,2-b]PYRIDIN-5,4'-IMIDAZOLIDINE]-2',5'-DIONE]

Structure (SMILES): O=C1NC(=O)C2(N1)c1ccccc1-c1ccc(F)cc12 (centres unmarked) [Compound A, Spiro-(-2-fluoro-9H-fluoren-9,4'-imidazolidine)-2',5'-dione, reference compound]
preventing cataract in galactosemic rats (galactosemic rats; 1.26 mg/kg): wholly effective | lens opacification [2]: prevented | lens wet weight increase [2]: prevented | activity at 0.75 µM [2, 4]: 55% | activity at 0.75 µM [2, 5]: 50% | activity at 0.75 µM [2, 6]: 73% | cataract in chronic streptozotocin-induced rats [3]: prevent cataract | motor nerve conduction velocity in chronic streptozotocin-induced rats [3]: significantly preserve

Structure (SMILES): O=C1NC(=O)C2(S1)c1cc(F)ccc1-c1ccc(F)cc12 [D, Spiro-(2,7-difluoro-9H-fluoren-9,5'-thiazolidine)-2',4'-dione]
lens opacification [2]: prevented | lens wet weight increase [2]: prevented | activity at 0.75 µM [2, 4]: 83% | activity at 0.75 µM [2, 5]: 85% | activity at 0.75 µM [2, 6]: 109%
